How the values were obtained:
[1] = target: Cyclin-dependent kinase 5/CDK5 activator 1 (Homo sapiens, UniProt Q00535); type: protein-complex assay
Description: Inhibitory activity against cyclin-dependent kinase 5/p25

[2] = target: Cyclin-dependent kinase 1/cyclin B (Homo sapiens, UniProt O95067+P06493+P14635+Q8WWL7); type: cell-based, Marthasterias glacialis, Oocyte
Cyclin-dependent kinase 1/cyclin B, sequence (P06493 whole entry): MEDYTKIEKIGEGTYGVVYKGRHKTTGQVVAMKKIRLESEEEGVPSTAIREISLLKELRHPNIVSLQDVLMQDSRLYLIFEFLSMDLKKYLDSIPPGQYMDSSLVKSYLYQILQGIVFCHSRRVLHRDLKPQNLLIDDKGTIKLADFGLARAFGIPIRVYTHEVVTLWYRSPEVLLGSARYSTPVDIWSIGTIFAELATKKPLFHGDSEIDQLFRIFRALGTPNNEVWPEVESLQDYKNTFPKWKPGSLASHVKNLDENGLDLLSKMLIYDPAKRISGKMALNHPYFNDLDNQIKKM
Cyclin-dependent kinase 1/cyclin B, sequence (P14635 whole entry): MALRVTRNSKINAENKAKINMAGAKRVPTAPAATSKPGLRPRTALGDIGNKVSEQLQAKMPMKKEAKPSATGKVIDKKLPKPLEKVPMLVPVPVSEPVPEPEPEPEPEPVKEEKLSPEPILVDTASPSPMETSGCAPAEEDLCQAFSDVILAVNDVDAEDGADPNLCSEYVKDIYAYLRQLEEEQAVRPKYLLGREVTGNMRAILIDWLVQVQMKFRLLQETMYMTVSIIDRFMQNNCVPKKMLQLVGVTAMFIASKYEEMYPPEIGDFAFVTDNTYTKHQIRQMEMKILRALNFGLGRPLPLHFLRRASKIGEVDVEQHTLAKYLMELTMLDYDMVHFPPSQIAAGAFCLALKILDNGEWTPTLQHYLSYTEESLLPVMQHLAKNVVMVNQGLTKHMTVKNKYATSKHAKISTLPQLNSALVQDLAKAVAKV
Cyclin-dependent kinase 1/cyclin B, sequence (Q8WWL7 whole entry): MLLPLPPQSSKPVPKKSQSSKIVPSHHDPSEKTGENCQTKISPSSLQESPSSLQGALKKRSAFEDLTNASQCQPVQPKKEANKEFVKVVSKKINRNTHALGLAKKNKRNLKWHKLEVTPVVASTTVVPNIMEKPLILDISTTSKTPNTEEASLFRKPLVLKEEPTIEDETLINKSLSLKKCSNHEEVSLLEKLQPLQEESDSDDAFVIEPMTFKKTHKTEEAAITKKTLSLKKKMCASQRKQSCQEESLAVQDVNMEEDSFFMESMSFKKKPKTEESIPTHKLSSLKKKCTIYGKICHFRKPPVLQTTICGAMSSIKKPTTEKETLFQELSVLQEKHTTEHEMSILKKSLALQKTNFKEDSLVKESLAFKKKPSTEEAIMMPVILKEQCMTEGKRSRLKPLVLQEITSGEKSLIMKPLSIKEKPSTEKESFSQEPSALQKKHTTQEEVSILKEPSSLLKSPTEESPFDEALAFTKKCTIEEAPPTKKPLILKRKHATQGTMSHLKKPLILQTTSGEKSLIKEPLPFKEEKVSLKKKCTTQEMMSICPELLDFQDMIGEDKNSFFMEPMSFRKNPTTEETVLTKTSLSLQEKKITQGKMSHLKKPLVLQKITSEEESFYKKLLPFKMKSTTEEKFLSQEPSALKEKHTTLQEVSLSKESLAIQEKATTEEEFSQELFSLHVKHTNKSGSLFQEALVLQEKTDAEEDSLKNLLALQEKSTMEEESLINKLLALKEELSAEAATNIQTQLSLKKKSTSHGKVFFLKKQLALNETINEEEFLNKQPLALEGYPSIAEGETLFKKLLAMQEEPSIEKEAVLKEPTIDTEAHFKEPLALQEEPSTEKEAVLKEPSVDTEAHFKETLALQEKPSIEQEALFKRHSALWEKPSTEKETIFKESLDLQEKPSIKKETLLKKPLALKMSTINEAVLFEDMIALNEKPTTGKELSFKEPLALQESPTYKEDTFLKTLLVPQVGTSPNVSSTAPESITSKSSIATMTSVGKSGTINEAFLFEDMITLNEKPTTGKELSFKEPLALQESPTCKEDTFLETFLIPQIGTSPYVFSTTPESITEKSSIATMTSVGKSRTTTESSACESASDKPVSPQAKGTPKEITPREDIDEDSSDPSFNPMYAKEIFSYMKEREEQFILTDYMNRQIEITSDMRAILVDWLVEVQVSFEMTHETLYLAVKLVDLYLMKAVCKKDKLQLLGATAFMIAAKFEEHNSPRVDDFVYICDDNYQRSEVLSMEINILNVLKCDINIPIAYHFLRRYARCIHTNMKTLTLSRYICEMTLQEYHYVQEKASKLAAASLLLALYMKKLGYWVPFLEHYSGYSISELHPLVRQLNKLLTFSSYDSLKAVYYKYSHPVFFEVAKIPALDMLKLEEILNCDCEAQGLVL
Cyclin-dependent kinase 1/cyclin B, sequence (O95067 whole entry): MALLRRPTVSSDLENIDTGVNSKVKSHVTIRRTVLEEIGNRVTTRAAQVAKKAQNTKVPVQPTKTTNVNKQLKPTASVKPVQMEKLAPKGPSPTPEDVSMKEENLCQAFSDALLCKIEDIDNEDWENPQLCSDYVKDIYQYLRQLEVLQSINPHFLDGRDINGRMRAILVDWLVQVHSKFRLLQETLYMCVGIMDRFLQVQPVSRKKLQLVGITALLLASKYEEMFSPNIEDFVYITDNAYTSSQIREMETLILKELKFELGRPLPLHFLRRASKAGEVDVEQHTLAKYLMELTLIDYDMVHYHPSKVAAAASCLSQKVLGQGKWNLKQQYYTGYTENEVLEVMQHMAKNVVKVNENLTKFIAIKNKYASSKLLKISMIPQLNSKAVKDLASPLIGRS
Description: Inhibitory activity against cyclin dependent kinase 1-cyclinB extracted from M phase starfish (Marthasterias glacialis) oocytes

Cyclin-dependent kinase 5/CDK5 activator 1, sequence (Q00535 whole entry): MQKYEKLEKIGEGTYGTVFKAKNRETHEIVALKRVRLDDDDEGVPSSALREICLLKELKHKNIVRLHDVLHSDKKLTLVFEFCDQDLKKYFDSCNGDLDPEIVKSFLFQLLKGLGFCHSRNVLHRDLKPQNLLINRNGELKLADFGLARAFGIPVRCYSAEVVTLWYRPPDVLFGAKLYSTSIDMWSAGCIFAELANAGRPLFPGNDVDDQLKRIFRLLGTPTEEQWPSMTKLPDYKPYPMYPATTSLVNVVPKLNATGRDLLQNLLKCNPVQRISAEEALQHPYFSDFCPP
Cyclin-dependent kinase 5/CDK5 activator 1, sequence (Q15078 whole entry, further chain): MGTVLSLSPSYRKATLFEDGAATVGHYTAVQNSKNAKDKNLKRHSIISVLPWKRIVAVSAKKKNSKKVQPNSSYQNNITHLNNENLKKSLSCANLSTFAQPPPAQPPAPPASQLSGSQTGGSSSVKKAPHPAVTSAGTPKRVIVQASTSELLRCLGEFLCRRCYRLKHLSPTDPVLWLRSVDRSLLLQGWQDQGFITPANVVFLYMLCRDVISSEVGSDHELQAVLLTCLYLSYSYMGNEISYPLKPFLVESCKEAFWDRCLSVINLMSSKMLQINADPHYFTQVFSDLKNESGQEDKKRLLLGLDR

Row | SMILES | IC50 [1] | IC50 [2]
1 | O=C1Cc2c([nH]c3ccc(Br)cc23)-c2sccc2N1 | 4 µM | 
2 | SC1=Nc2ccccc2-c2cc(-c3ccccn3)cc(-c3cccs3)c2C1 |  | 33 µM
3 | O=[N+]([O-])c1ccc2[nH]c3c(c2c1)CC(=S)Nc1ccccc1-3 | 1.7 µM | 1.3 µM
4 | N#Cc1ccc2[nH]c3c(c2c1)CC(=O)Nc1ccsc1-3 |  | 0.075 µM
5 | COc1ccc2c(c1)NC(=O)Cc1c-2[nH]c2ccc([N+](=O)[O-])cc12 | 0.63 µM | 1 µM
6 | Cc1ccc2[nH]c3c(c2c1)CC(=O)Nc1ccsc1-3 | 40 µM | 
7 | O=C1Cc2c([nH]c3ncccc23)-c2ccccc2N1 | 3.3 µM | 
8 | Cc1ccc2[nH]c3c(c2c1)CC(=O)Nc1ncccc1-3 | 430 µM | 200 µM
9 | CC(=O)Cc1ccc2c(c1)-c1[nH]c3ccc(C(F)(F)F)cc3c1CC(=O)N2 | 0.42 µM | 
10 | O=C1Cc2c([nH]c3ccc([N+](=O)[O-])cc23)-c2sccc2N1 | 0.1 µM | 0.08 µM
11 | COc1ccc2[nH]c3c(c2c1)CC(=O)Nc1ncccc1-3 | 420 µM | 89.9 µM
12 | O=C1Cc2c([nH]c3ccc(Cl)cc23)-c2cccnc2N1 | 42 µM | 23 µM
13 | CSC1=Nc2ccccc2-c2c(c3cc([N+](=O)[O-])ccc3n2C)C1 | 849 µM | 230 µM
14 | O=C1Cc2c([nH]c3ccc(Cl)cc23)-c2sccc2N1 | 5 µM | 
15 | O=C1Cc2c([nH]c3ccc(C(F)(F)F)cc23)-c2cccnc2N1 | 13 µM | 6 µM

— ChEMBL document CHEMBL1148295, “Evaluation and comparison of 3D-QSAR CoMSIA models for CDK1, CDK5, and GSK-3 inhibition by paullones” (J Med Chem, 2004)
